These results are taken from patent publication EP0548790A1, “(1'S)-Hydroxyalkyloxapenem-3-carboxylic acids and their use as beta-lactamase inhibitors” (ELI LILLY AND COMPANY, priority 1991, dated 1993).

In one assay the test system is E. coli TEM 1. The assay can be described thus: agar diffusion test, inhibition zone diameter (Hemmhof), inhibitor alone and combined with Cefaclor. The class given is cell-based, E. coli W 311O3 R6K (TEM 1). The note with it: for zone of inhibition at 10 µg/disc: Escherichia coli, TEM1, read-out: Hemmhofdurchmesser mm (E. coli TEM 1) I (10 mcg); for Hemmhofzuwachs, d.h. die Schutzwirkung: increase of zone with Cefaclor versus alone; for Eigenwirkung als Antibiotika: inhibitor alone; for Wirkung als Betalactamasehemmer gegen E. coli TEM 1: protection of Cefaclor against the bacterial enzyme. An excerpt: "like" bedeutet gleiche absolute Konfiguration zweier benachbarter Chiralitätszentren. Als Testkeim wurde ein besonders starker Betalactamase-Bildner verwendet. E. coli W 311O3 R6K (TEM 1) wurde deshalb mehrfach in einer Kulturlösung mit 2O mcg/ml Cefaclor bebrütet. Cefaclor allein (3O mcg) ergab einen Hemmhof von 16 mm, mit 1O mcg Clavulansäure kombiniert einen solchen von 22 mm Durchmesser.
A general note: Agar diffusion results depend on both activity and mobility in agar.

In assay [1] the test system is Penicillin resistenten Staph. aureus. The note with it: comparison with Clavulansäure; from earlier filing EP 89117433.6; cited from earlier work.
The next assay has as its system Pseudomonas aeruginosa. The note with it: comparison with Clavulansäure; from earlier filing EP 89117433.6; cited from earlier work.
Assay [2] concerns the target T1, Cephalosporinasen aus Enterobacter cloacae (Enterobacter cloacae, UniProt P05364).
T1 construct: dagegen ist auch gegen diese Keime als Betalactamasehemmer wirksam; endogenous in cells
The note with it: reported in Amer. J. Med. 79 (suppl. 5B), 194 (1985); cited from earlier work.

For assay [3], the target named is T2, Cephalosporinasen aus Pseudomonas aeruginosa (Pseudomonas aeruginosa, UniProt P24735).
T2 construct: dagegen ist auch gegen diese Keime als Betalactamasehemmer wirksam; endogenous in cells
T2 sequence (P24735 27-397): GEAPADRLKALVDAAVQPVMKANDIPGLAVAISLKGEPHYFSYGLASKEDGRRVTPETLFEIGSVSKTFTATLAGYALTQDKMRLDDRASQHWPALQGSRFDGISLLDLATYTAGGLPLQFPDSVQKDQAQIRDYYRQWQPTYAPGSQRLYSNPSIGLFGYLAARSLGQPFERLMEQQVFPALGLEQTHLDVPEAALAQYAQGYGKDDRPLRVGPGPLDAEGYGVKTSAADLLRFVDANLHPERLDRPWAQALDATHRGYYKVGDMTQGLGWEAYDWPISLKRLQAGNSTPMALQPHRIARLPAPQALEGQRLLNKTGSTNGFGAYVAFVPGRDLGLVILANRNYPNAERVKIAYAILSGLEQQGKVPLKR
The note with it: reported in Amer. J. Med. 79 (suppl. 5B), 194 (1985); cited from earlier work.

A further assay has as its system E. cloacae. The assay is described as follows: inhibition zone diameter, third-generation cephalosporin combined with inhibitor. In kind it is cell-based. An excerpt: Die erfindungsgemässen Verbindungen sind in der Lage, schon in geringen Konzentrationen die Hemmwirkung aller untersuchter Penicilline wie z. B. Amoxycillin, Piperacillin, Mezlocillin oder Cephalosporine wie z. B. Cefaclor, Cefoperazon gegen Betalactamase-bildende Bakterien zu verstärken. Auch gemeinhin als Betalactamase-stabile geltende Cephalosporine der dritten Generation wie z. B. Cefotaxim oder Ceftriaxon (je 3O mcg) ergaben in der Kombination mit Ie (1O mcg) erstmals deutliche Hemmhöfe vom Durchmesser 27 bzw. 26 mm gegen E. cloacae. Die erfindungsgemässen Verbindungen sind stark wirksam gegen Penicillinasen und Cephalosporinasen.

Assay [4] has as its target T1, Cephalosporinasen aus Enterobacter cloacae. The assay can be described thus: beta-lactamase inhibitor activity against cephalosporinase producer. The note with it: requires partner antibiotic able to enter the bacterium.
Assay [5] concerns the target T2, Cephalosporinasen aus Pseudomonas aeruginosa. Described as above. The note with it: requires partner antibiotic able to enter the bacterium.

T1 sequence (P05364 21-381): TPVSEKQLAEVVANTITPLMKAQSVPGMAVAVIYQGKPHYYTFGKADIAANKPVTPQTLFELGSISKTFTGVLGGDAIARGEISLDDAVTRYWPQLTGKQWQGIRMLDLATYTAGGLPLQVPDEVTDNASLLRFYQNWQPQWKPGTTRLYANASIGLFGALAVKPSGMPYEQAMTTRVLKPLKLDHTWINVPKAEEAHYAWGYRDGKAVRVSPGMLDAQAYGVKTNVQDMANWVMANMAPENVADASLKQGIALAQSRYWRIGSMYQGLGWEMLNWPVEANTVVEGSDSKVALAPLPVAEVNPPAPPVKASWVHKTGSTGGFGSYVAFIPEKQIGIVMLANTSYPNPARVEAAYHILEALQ

Regarding `CC(C)(C)C1=C(C(=O)O)N2C(=O)[C@H](CO)[C@H]2O1` (racemic) [Ia, 2-tert-Butyl-6-hydroxymethyloxapenem-3-carbonsäure (K-Salz)], in the assay with E. coli TEM 1, the zone of inhibition at 10 µg/disc is 17 mm; the “Hemmhofzuwachs, d.h. die Schutzwirkung” value was “vergleichsweise gering”; the “Eigenwirkung als Antibiotika” value was “gute Eigenwirkung”. For the same compound, the “Wirksamkeit in der Kombination mit Mezlocillin” value in assay [1] is “wirksamer als Clavulansäure”. Besides, the “Wirksamkeit in der Kombination mit Mezlocillin” value with Pseudomonas aeruginosa was “wirksamer als Clavulansäure”.

For `C[C@H](O)[C@H]1C(=O)N2C(C(=O)O)=C(C(C)(C)C)O[C@H]12` (racemic) [Ib, racemischer trans-2-tert-Butyl-6-(unlike-hydroxyethyl)oxapenem-3-carbonsäure], in the assay on E. coli TEM 1, the zone of inhibition at 10 µg/disc came out at 0 mm and the “Wirkung als Betalactamasehemmer gegen E. coli TEM 1” value was “besonders gute Wirkung”.

As for `C[C@H](O)[C@H]1C(=O)N2C(C(=O)O)=C(C(C)(C)C)O[C@@H]12` (racemic) [Ic, racemischer cis-2-tert-Butyl-6-(unlike-hydroxyethyl)oxapenem-3-carbonsäure], the zone of inhibition at 10 µg/disc in the assay on E. coli TEM 1 is 9 mm.

Turning to `N[C@@H](C(=O)N[C@@H]1C(=O)N2C(C(=O)O)=C(Cl)CS[C@H]12)c1ccccc1` [Cefaclor, reference compound], the Hemmhof with E. coli TEM 1 (Cefaclor allein (3O mcg)) is 16 mm.

As for `O=C(O)[C@H]1/C(=C/CO)O[C@@H]2CC(=O)N21` [Clavulansäure], the “Hemmhof Durchmesser” value with E. coli TEM 1 (Cefaclor 3O mcg combined with 1O mcg Clavulansäure) came to 22 mm. Also, the “Wirkung gegen Cephalosporinasen” value in assay [2] and in assay [3] was “nicht” throughout.

As for `C[C@@H](O)[C@H]1C(=O)N2C(C(=O)O)=C(C(C)(C)C)O[C@H]12` [Id], in the assay with E. coli TEM 1, the zone of inhibition at 10 µg/disc came to 23 mm; the “Hemmhofzuwachs, d.h. die Schutzwirkung” value is recorded as “vergleichsweise gering”; the “Eigenwirkung als Antibiotika” value is given as “gute Eigenwirkung”.

As to `C[C@H](O)[C@H]1C(=O)N2C(C(=O)O)=C(C(C)(C)C)O[C@H]12` [Ie, (5R,6R)-2-tert-Butyl-((1S)-hydroxyethyl)oxapenem-3-carbonsäure (K-Salz)], the zone of inhibition at 10 µg/disc in the assay on E. coli TEM 1 stood at 0 mm. In addition, the “Wirkung als Betalactamasehemmer gegen E. coli TEM 1” value in the assay on E. coli TEM 1 is “besonders gute Wirkung”. Besides, the “Hemmhöfe vom Durchmesser” value in the assay with E. cloacae (Cefotaxim 3O mcg combined with Ie 1O mcg) came out at 27 mm; with E. cloacae (Ceftriaxon 3O mcg combined with Ie 1O mcg), 26 mm. Also, the “Wirkung als Betalactamasehemmer” value in assay [4] and in assay [5] was “wirksam” in each case.
